Source: ChEMBL document CHEMBL1208734, “Aryl boronic acid inhibition of synthetic melanin polymerization” (Bioorg Med Chem Lett, 2010)

Tests used:
[1] = Inhibition of synthetic melanin polymerization after 30 to 60 mins by UV-vis spectroscopic analysis; assay type: functional
[2] = Inhibition of synthetic melanin polymerization at 2 mM after 30 to 60 mins by UV-vis spectroscopic analysis relative to control; assay type: functional; conditions: values are per cent of control

## O=[N+]([O-])c1ccc(B(O)O)cc1
[1]
  IC50: 550 µM
[2]
  residual activity: 21.5%

## OB(O)c1ccc(Cl)cc1
[1]
  IC50: 1310 µM
[2]
  residual activity: 41.2%

## Cc1ccc(B(O)O)cc1 [TOLYL BORONIC ACID]
[1]
  IC50: 4450 µM
[2]
  residual activity: 62.8%

## OB(O)c1ccc(C(F)(F)F)cc1
[1]
  IC50: 800 µM
[2]
  residual activity: 26.9%

## N#Cc1ccc(B(O)O)cc1
[1]
  IC50: 590 µM
[2]
  residual activity: 19.4%

## OB(O)c1ccc(F)cc1
[1]
  IC50: 1840 µM
[2]
  residual activity: 49.7%

## OB(O)c1ccc(Br)cc1
[1]
  IC50: 1030 µM
[2]
  residual activity: 37.7%

## COc1ccc(B(O)O)cc1
[1]
  IC50: 6200 µM
[2]
  residual activity: 66.1%

## OB(O)c1ccccc1 [PHENYLBORONIC ACID]
[1]
  IC50: 1840 µM
[2]
  residual activity: 51.7%

## CC(=O)c1ccc(B(O)O)cc1
[1]
  IC50: 690 µM
[2]
  residual activity: 30.5%
